Source: patent US20070249590A1, “Substituted indolo[2,3-a]pyrrolo[3,4-c]carbazole compounds useful in treating kinase disorders” (priority 2005, published 2007)

molecular target: T1, JAK3 (JH1 and JH2 domain) (Homo sapiens, UniProt P52333); assay: JAK3 Kinase Assay (ELISA of peptide substrate phosphorylation); assay type: biochemical; conditions: purified JAK3 enzyme, 10 μM ATP, biotinylated peptide substrate, 1 hour at room temperature
T1 sequence (P52333 521-1111 limits assumed): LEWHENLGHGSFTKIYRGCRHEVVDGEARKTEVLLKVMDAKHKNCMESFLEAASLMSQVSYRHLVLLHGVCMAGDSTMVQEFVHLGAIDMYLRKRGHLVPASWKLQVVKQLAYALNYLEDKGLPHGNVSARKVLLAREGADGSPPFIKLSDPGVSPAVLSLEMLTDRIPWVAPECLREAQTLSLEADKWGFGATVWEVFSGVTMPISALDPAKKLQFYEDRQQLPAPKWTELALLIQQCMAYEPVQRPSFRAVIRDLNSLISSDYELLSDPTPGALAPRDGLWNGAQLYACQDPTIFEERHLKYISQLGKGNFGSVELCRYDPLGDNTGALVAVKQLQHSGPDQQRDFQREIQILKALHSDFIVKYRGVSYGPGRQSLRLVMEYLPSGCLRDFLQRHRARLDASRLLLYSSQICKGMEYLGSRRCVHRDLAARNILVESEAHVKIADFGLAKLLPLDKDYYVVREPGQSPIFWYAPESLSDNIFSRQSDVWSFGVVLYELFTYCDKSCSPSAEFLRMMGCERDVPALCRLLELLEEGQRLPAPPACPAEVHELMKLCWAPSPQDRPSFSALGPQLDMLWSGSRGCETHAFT
How it was run: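 Sf21-baculovirus-expressed JAK3 (JH1+JH2), glutathione-bead purified, with biotinylated peptide substrate (in buffer containing 10 μM ATP) in HEPES pH 7.5/MgCl2/DTT, 1 h RT. Product was captured on Neutravidin, detected with HRP anti-phosphotyrosine (PY99)/TMB, OD 450/650 nm. Triplicate 16-point half-log series from 200 μM gave IC50; otherwise % inhibition at 1 μM.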

Row | SMILES | IC50 [nM]
1 | COc1ccccc1CNC(=O)OC1Cn2c3ccccc3c3c4c(c5c6ccccc6n(c5c32)CC1O)C(=O)NC4=O (stereo not drawn) [Cpd 78, 12,13-{2-[(2-methoxy-benzyl)carbamoyloxy]-3-hydroxy-butan-1,4-yl}-12,13-dihydro-5,7-dioxo-6H-indolo[2,3-a]pyrrolo[3,4-c]carbazole] | 179
2 | O=C1NCc2c1c1c3cc(CN4CCOCC4)ccc3n3c1c1c2c2ccccc2n1CC(O)C(O)C3 (stereo not drawn) [Cpd 194, 3-(morpholin-4-ylmethyl)-12,13-(2,3-dihydroxy-butan-1,4-yl)-6,7,12,13-tetrahydro-5-oxo-5H-indolo[2,3-a]pyrrolo[3,4-c]carbazole] | 503
3 | O=C1NCc2c1c1c3ccccc3n3c1c1c2c2ccccc2n1CCC(O)C(O)CC3 (stereo not drawn) [Cpd 21, 12,13-(3,4-dihydroxy-hexan-1,6-yl)-6,7,12,13-tetrahydro-5-oxo-5H-indolol[2,3-a]pyrrolo[3,4-c]carbazole] | 12
4 | O=C1NC(=O)c2c1c1c3cc(-c4cnccn4)ccc3n3c1c1c2c2ccccc2n1CC(O)CC3 (stereo not drawn) [Cpd 35, 3-pyrazin-2-yl-12,13-(2-hydroxy-butan-1,4-yl)-12,13-dihydro-5,7-dioxo-6H-indolo[2,3-a]pyrrolo[3,4-c]carbazole] | 13
5 | O=C1NCc2c1c1c3ccccc3n3c1c1c2c2ccccc2n1CC(O)(COC(=O)N1CCN(c2ccncc2)CC1)C3 (stereo not drawn) [Cpd 144, 12,13-{2-hydroxy-2-[(4-pyridin-4-yl-piperazin-1-yl)carbonyloxymethyl]-propan-1,3-yl}-6,7,12,13-tetrahydro-5-oxo-5H-indolo[2,3-a]pyrrolo[3,4-c]carbazole] | 886
6 | COc1ccc(CCNC(=O)OCC2Cn3c4ccccc4c4c5c(c6c7ccccc7n(c6c43)C2)C(=O)NC5)cc1OC (stereo not drawn) [Cpd 161, 12,13-(2-{[2-(3,4-dimethoxy-phenyl)ethyl]carbamoyloxymethyl}-propan-1,3-yl)-6,7,12,13-tetrahydro-5-oxo-5H-indolo[2,3-a]pyrrolo[3,4-c]carbazole] | 1010
7 | COc1ccc(CCNC(=O)OC2Cn3c4ccccc4c4c5c(c6c7ccccc7n(c6c43)CC2O)C(=O)NC5=O)cc1OC (stereo not drawn) [Cpd 84, 12,13-(2-{[2-(3,4-dimethoxy-phenyl)ethyl]carbamoyloxy}-3-hydroxy-butan-1,4-yl)-12,13-dihydro-5,7-dioxo-6H-indolo[2,3-a]pyrrolo[3,4-c]carbazole] | 187
8 | O=C1NCc2c1c1c3ccccc3n3c1c1c2c2ccccc2n1CC(O)C(O)C3 (stereo not drawn) [Cpd 14, 12,13-(2,3-dihydroxy-butan-1,4-yl)-6,7,12,13-tetrahydro-5-oxo-5H-indolo[2,3-a]pyrrolo[3,4-c]carbazole] | 7
9 | COc1ccccc1CNC(=O)OCC1Cn2c3ccccc3c3c4c(c5c6ccccc6n(c5c32)C1)C(=O)NC4 (stereo not drawn) [Cpd 169, 12,13-{2-[(2-methoxy-benzyl)carbamoyloxymethyl]-propan-1,3-yl}-6,7,12,13-tetrahydro-5-oxo-5H-indolo[2,3-a]pyrrolo[3,4-c]carbazole] | 73
10 | O=C1NCc2c1c1c3cc(NC4=NCCN4)ccc3n3c1c1c2c2ccccc2n1CC(O)C(O)C3 (stereo not drawn) [Cpd 206] | 49
11 | CC1(C)O[C@H]2Cn3c4ccccc4c4c5c(c6c7ccccc7n(c6c43)C[C@@H]2O1)C(=O)NC5 [Cpd 16, 12,13-[(4S,5S)-2,2-dimethyl-[1,3]dioxolo[4,5-b]butan-1,4-yl]-6,7,12,13-tetrahydro-5-oxo-5H-indolo[2,3-a]pyrrolo[3,4-c]carbazole] | 105

Second part, the molecule after the results:

Row | IC50 [nM] | SMILES
12 | 81 | O=C1NC(=O)c2c1c1c3ccccc3n3c1c1c2c2ccccc2n1CC(OC(=O)N1CCN(c2ccccc2)CC1)C(O)C3 (stereo not drawn) [Cpd 102, 12,13-{2-[(4-phenyl-piperazin-1-yl)carbonyloxy]-3-hydroxy-butan-1,4-yl}-12,13-dihydro-5,7-dioxo-6H-indolo[2,3-a]pyrrolo[3,4-c]carbazole]
13 | 175 | CN(C)CCCN1CCN(C(=O)OC2Cn3c4ccccc4c4c5c(c6c7ccccc7n(c6c43)CC2O)C(=O)NC5=O)CC1 (stereo not drawn) [Cpd 97, 12,13-(2-{[4-(3-dimethylamino-prop-1-yl)piperazin-1-yl]carbonyloxy}-3-hydroxy-butan-1,4-yl)-12,13-dihydro-5,7-dioxo-6H-indolo[2,3-a]pyrrolo[3,4-c]carbazole]
14 | 31 | CC(C)NC(=O)OC1CCn2c3ccccc3c3c4c(c5c6ccccc6n(c5c32)C1)C(=O)NC4=O (stereo not drawn) [Cpd 39, 12,13-[2-(prop-2-ylcarbamoyloxy)-butan-1,4-yl]-12,13-dihydro-5,7-dioxo-6H-indolo[2,3-a]pyrrolo[3,4-c]carbazole]
15 | 27 | CN1CCN(C(=O)C2(O)Cn3c4ccccc4c4c5c(c6c7ccccc7n(c6c43)CC2O)C(=O)NC5=O)CC1 (stereo not drawn) [Cpd 125, 12,13-{2-[(4-methyl-piperazin-1-yl)carbonyl]-2,3-dihydroxy-butan-1,4-yl}-12,13-dihydro-5,7-dioxo-6H-indolo[2,3-a]pyrrolo[3,4-c]carbazole]
16 | 14 | CN(C)[C@@H]1CCN(C(=O)OC2CCn3c4ccccc4c4c5c(c6c7ccccc7n(c6c43)C2)C(=O)NC5=O)C1 (stereo partly drawn) [Cpd 74, 12,13-(2-{[(3R)-3-dimethylamino-pyrrolidin-1-yl]carbonyloxy}-butan-1,4-yl)-12,13-dihydro-5,7-dioxo-6H-indolo[2,3-a]pyrrolo[3,4-c]carbazole]
17 | 35 | O=C(NC1CCNCC1)OC1CCn2c3ccccc3c3c4c(c5c6ccccc6n(c5c32)C1)C(=O)NC4=O (stereo not drawn) [Cpd 75, 12,13-[2-(piperidin-4-yl-carbamoyloxy)-butan-1,4-yl]-12,13-dihydro-5,7-dioxo-6H-indolo[2,3-a]pyrrolo[3,4-c]carbazole]
18 | 48 | O=C(NCCCN1CCCC1=O)OC1Cn2c3ccccc3c3c4c(c5c6ccccc6n(c5c32)CC1O)C(=O)NC4=O (stereo not drawn) [Cpd 79, 12,13-(2-{[3-(2-oxo-pyrrolidin-1-yl)prop-1-yl]carbamoyloxy}-3-hydroxy-butan-1,4-yl)-12,13-dihydro-5,7-dioxo-6H-indolo[2,3-a]pyrrolo[3,4-c]carbazole]
19 | ~200 | O=C1NCc2c1c1c3ccccc3n3c1c1c2c2ccccc2n1CC(O)(COC(=O)N1CCC(CO)CC1)C3 (stereo not drawn) [Cpd 143, 12,13-{2-hydroxy-2-[(4-hydroxymethyl-piperidin-1-yl)carbonyloxymethyl]-propan-1,3-yl}-6,7,12,13-tetrahydro-5-oxo-5H-indolo[2,3-a]pyrrolo[3,4-c]carbazole]
20 | 177 | NC1CCN(C(=O)OCC2(O)Cn3c4ccccc4c4c5c(c6c7ccccc7n(c6c43)C2)C(=O)NC5)CC1 (stereo not drawn) [Cpd 176, 12,13-{2-hydroxy-2-[(4-amino-piperidin-1-yl)carbonyloxymethyl]-propan-1,3-yl}-6,7,12,13-tetrahydro-5-oxo-5H-indolo[2,3-a]pyrrolo[3,4-c]carbazole]
21 | > 400 | O=C1NC(=O)c2c1c1c3ccccc3n3c1c1c2c2ccccc2n1CC(OC(=O)N1CCC(C2CCCCC2)CC1)CC3 (stereo not drawn) [Cpd 53, 12,13-{2-[(4-cyclohexyl-piperazin-1-yl)carbonyloxy]-butan-1,4-yl}-12,13-dihydro-5,7-dioxo-6H-indolo[2,3-a]pyrrolo[3,4-c]carbazole]
22 | 30 | O=C(NCc1ccncc1)OC1CCn2c3ccccc3c3c4c(c5c6ccccc6n(c5c32)C1)C(=O)NC4=O (stereo not drawn) [Cpd 47, 12,13-{2-[(pyridin-4-yl-methyl)carbamoyloxy]-butan-1,4-yl}-12,13-dihydro-5,7-dioxo-6H-indolo[2,3-a]pyrrolo[3,4-c]carbazole]
23 | 129 | O=C1NC(=O)c2c1c1c3ccccc3n3c1c1c2c2ccccc2n1CC(OC(=O)N1CCN(c2ccccn2)CC1)CC3 (stereo not drawn) [Cpd 63, 12,13-{2-[(4-pyridin-2-yl-piperazin-1-yl)carbonyloxy]-butan-1,4-yl}-12,13-dihydro-5,7-dioxo-6H-indolo[2,3-a]pyrrolo[3,4-c]carbazole]
24 | 516 | O=C1NC(=O)c2c1c1c3ccccc3n3c1c1c2c2ccccc2n1CC(OC(=O)N1CCN(CCN2CCOCC2)CC1)C(O)C3 (stereo not drawn) [Cpd 94]
25 | 9 | O=C1NC(=O)c2c1c1c3ccccc3n3c1c1c2c2ccccc2n1CC(O)(C(=O)O)C(O)C3 (stereo not drawn) [Cpd 13, 12,13-(2-carboxy-2,3-dihydroxy-butan-1,4-yl)-12,13-dihydro-5,7-dioxo-6H-indolo[2,3-a]pyrrolo[3,4-c]carbazole]
26 | 54 | O=C1NC(=O)c2c1c1c3ccccc3n3c1c1c2c2ccccc2n1CC(O)(C(=O)N1CCN(CC(=O)N2CCCC2)CC1)C(O)C3 (stereo not drawn) [Cpd 133, 12,13-(2-{[4-(pyrrolidin-1-yl-carbonylmethyl)piperazin-1-yl]carbonyl}-2,3-dihydroxy-butan-1,4-yl)-12,13-dihydro-5,7-dioxo-6H-indolo[2,3-a]pyrrolo[3,4-c]carbazole]
27 | 655 | O=C1NCc2c1c1c3ccccc3n3c1c1c2c2ccccc2n1CC(COC(=O)N1CCC(N2CCCC2)CC1)C3 (stereo not drawn) [Cpd 162, 12,13-{2-[(4-pyrrolidin-1-yl-piperidin-1-yl)carbonyloxymethyl]-propan-1,3-yl}-6,7,12,13-tetrahydro-5-oxo-5H-indolo[2,3-a]pyrrolo[3,4-c]carbazole]
